Source: ChEMBL document CHEMBL4002636, “Alkaloids from the mangrove endophytic fungus Diaporthe phaseolorum SKS019” (Bioorg Med Chem Lett, 2017)
Calls of active or inactive are those of the source. The calls are words filed in the database; no cut-off is given here.

Columns and labels:
MDA-MB-435 [1] = experiment: Cytotoxicity against human MDA-MB-435 cells assessed as growth inhibition at 50 uM after 48 hrs by MTT assay; type: functional, cell-based
HepG2 [2] = experiment: Cytotoxicity against human HepG2 cells assessed as growth inhibition at 50 uM after 48 hrs by MTT assay; type: functional, cell-based
HCT-116 [3] = experiment: Cytotoxicity against human HCT116 cells assessed as growth inhibition after 48 hrs by MTT assay; type: functional, cell-based; settings: HCT-116, 48 h
MCF-10A = experiment: Cytotoxicity against human MCF10A cells assessed as growth inhibition after 48 hrs by MTT assay; type: cell-based
NCI-H460 [4] = experiment: Cytotoxicity against human NCI-H460 cells assessed as growth inhibition after 48 hrs by MTT assay; type: functional, cell-based; settings: NCI-H460, 48 h
HepG2 [5] = experiment: Cytotoxicity against human HepG2 cells assessed as growth inhibition after 48 hrs by MTT assay; type: functional, cell-based; settings: HepG2, 48 h
MDA-MB-435 [6] = experiment: Cytotoxicity against human MDA-MB-435 cells assessed as growth inhibition after 48 hrs by MTT assay; type: functional, cell-based; settings: MDA-MB-435, 48 h
HCT-116 [7] = experiment: Cytotoxicity against human HCT116 cells assessed as growth inhibition at 50 uM after 48 hrs by MTT assay; type: functional, cell-based
NCI-H460 [8] = experiment: Cytotoxicity against human NCI-H460 cells assessed as growth inhibition at 50 uM after 48 hrs by MTT assay; type: functional, cell-based

Row | SMILES | growth inhibition (GI) (MDA-MB-435 [1]) | growth inhibition (GI) (HepG2 [2]) | IC50 (HCT-116 [3]) [µM] | IC50 (MCF-10A) [µM] | IC50 (NCI-H460 [4]) [µM] | IC50 (HepG2 [5]) [µM] | IC50 (MDA-MB-435 [6]) [µM] | growth inhibition (GI) (HCT-116 [7]) | growth inhibition (GI) (NCI-H460 [8])
1 | O=C1c2cc(O)cc(O)c2CN1CCO | inactive | inactive | > 50 | > 50 | > 50 | > 50 | > 50 | inactive | inactive
2 | COc1cccc2c1C(=O)c1c(O)c3c(c(O)c1C2=O)C[C@@](O)(C(=O)CO)C[C@@H]3O[C@H]1C[C@H](N)[C@@H](O)[C@H](C)O1 [EPIRUBICIN] | – | – | 0.37 | 0.13 | 0.12 | 0.32 | 0.26 | – | –
3 | COC(=O)c1cc(OC)c(OC)c2oc3cc(C)ncc3c(=O)c12 | inactive | inactive | > 50 | > 50 | > 50 | > 50 | > 50 | inactive | inactive
4 | COC(=O)c1cc(OC)c(OC(C)=O)c2oc3cc(C)ncc3c(=O)c12 | inactive | inactive | > 50 | > 50 | > 50 | > 50 | > 50 | inactive | inactive
5 | COC(=O)c1cc(O)cc2oc3cc(CO)ncc3c(=O)c12 | inactive | inactive | > 50 | > 50 | > 50 | > 50 | > 50 | inactive | inactive
6 | COC(=O)c1cc(OC)cc2oc3cc(C)ncc3c(=O)c12 | inactive | inactive | > 50 | > 50 | > 50 | > 50 | > 50 | inactive | inactive
7 | COc1cc(O)c2c(c1)C(=O)c1cc(C)ncc1C2=O | – | – | 34.8 | 9.31 | 6.57 | > 50 | 5.32 | – | –
8 | O=C(O)CCCCN1Cc2c(O)cc(O)cc2C1=O | inactive | inactive | > 50 | > 50 | > 50 | > 50 | > 50 | inactive | inactive
9 | COC(=O)CCCCN1Cc2c(O)cc(O)cc2C1=O | inactive | inactive | > 50 | > 50 | > 50 | > 50 | > 50 | inactive | inactive
